Laboratory results reported in patent US9580430B2, “9H-pyrimido[4,5-B]indoles and related analogs as BET bromodomain inhibitors” (THE REGENTS OF THE UNIVERSITY OF MICHIGAN, priority 2014, dated 2017).

Assays:
[1] = Prostate histology and hormone measurement in mice; type: in vivo
Procedure: Highly hormone responsive seminal vesicles attached to prostate were harvested from mice after four weeks of injection. Prostate were fixed in formalin solution and processed for sectioning. Standard H&E staining was achieved on the formalin fixed sections and were used to image the different lobes of the gland. To determine the testosterone levels, blood samples were collected by cardiac puncture from mice anesthetized with isoflurane. The serum was separated from the blood and stored at −80° C. until assayed. Serum testosterone levels were measured by the Ligand Assay at University of Michigan-ULAM Pathology Cores for Animal Research.

[2] = test system: VCaP or LNCaP cells; assay: Matrigel invasion assay, VCaP or LNCaP cells; type: cell-based; conditions: 500 nM
Procedure: Medium containing 10% FBS in the lower chamber served as chemoattractant. […] After 48 h, the non-invading cells and EC matrix were gently removed with a cotton swab and invasive cells located on the lower side of the chamber were stained with crystal violet, air dried, photographed and counted.

[3] = test system: BRD2/3/4; assay: ChIP-seq of BRD2/3/4 in VCaP cells; type: cell-based; conditions: 500 nM, 12 h
Procedure: (§1) The ChIP assays for BRD2, BRD3, BRD4, AR, RNA PolII, ERG and H3K27ac were performed using HighCell ChIP kit (Diagenode) according to manufacturer's protocol. […] Next, cells were cross-linked for 10 min. with 1% formaldehyde. […] Chromatin equivalent to 5×10^6 cells were used for ChIP using different antibodies. ChIP DNA was isolated (IPure Kit, Diagenode) from samples by incubation with the antibody at 4° C. overnight followed by wash and reversal of cross-linking. The ChIP-seq sample preparation for sequencing was performed according to the manufacturer's instructions (Illumina). […] A single A-base was added to fragment ends by Klenow fragment (3′ to 5′ exo minus; NEB) followed by ligation of Illumina adaptors (Quick ligase, NEB). The adaptor-modified DNA fragments were enriched by PCR using the Illumina Barcode primers and Phusion DNA polymerase (NEB). PCR products were size selected using 3% NuSieve agarose gels (Lonza) followed by gel extraction using QIAEX II reagents (QIAGEN). Libraries were quantified with the Bioanalyzer 2100 (Agilent) and sequenced on the Illumina HiSeq 2000 Sequencer (100 nucleotide read length).

[4] = test system: MYC; assay: MYC levels in prostate cancer cells; type: cell-based; conditions: AR-positive cells sensitive to JQ1, not AR-negative cells
Procedure: Total RNA was isolated from cells using RNeasy Mini Kit (Qiagen) and cDNA was synthesized from 1,000 ng total RNA using SuperScript III First-Strand Synthesis SuperMix (Invitrogen). QPCRs were performed in duplicate or triplicate using Taqman assays (Applied Biosystems) or standard SYBR green reagents and protocols on a StepOnePlus Real-Time PCR system (Applied Biosystems). The target mRNA expression was quantified using ΔΔCt method and normalized to GAPDH expression. All primers were designed using Primer 3 (http://frodo.wi.mit.edu/primer3/) and synthesized by Integrated DNA Technologies (Coralville, Iowa).
For Western blot analysis, 200 ug total protein extract was boiled in sample buffer and 10-20 μg aliquots were separated by SDS-PAGE and transferred onto Polyvinylidene Difluoride membrane (GE Healthcare). The membrane was incubated for one hour in blocking buffer [Tris-buffered saline, 0.1% Tween (TBS-T), 5% nonfat dry milk] followed by incubation overnight at 4° C. with the primary antibody. Following a wash with TBS-T, the blot was incubated with horseradish peroxidase-conjugated secondary antibody and signals were visualized by enhanced chemiluminescence system as per manufacturer's protocol (GE Healthcare).

[5] = test system: AR; assay: ChIP-seq of AR in DHT-stimulated VCaP cells; type: cell-based; conditions: DHT 10 nM plus JQ1 500 nM, MDV3100 10 μM or Bicalutamide 25 μM, FIG. 17
Procedure: as §1
For enrichment plots shown in FIGS. 17, 19 and 20, identified peaks for each sample are centered by peak summit and average coverage per million was counted within 1500 bp relative to the peak center.

[6] = test system: MYC signature; assay: Gene expression array, GSEA of MYC signature, LNCaP; type: cell-based; conditions: LNCaP after JQ1 treatment
Procedure: (§2) Cells treated with only vehicle or 10 nM DHT served as controls. […] Expression profiling was performed using the Agilent Whole Human Genome Oligo Microarray (SantaClara, Calif.) according to the manufacturer's protocol. All samples were run in technical duplicates or quadruplets against control. Over- and under-expressed gene sets were generated by filtering to include only 2-fold average over- or underexpression (Log ratio with p<0.001) in all hybridizations.

[7] = test system: MYC signature; assay: Gene expression array, GSEA of MYC signature, VCaP; type: cell-based; conditions: VCaP after JQ1 treatment
Procedure: as §2

[8] = test system: AR-gene signature; assay: Gene expression array, GSEA of the AR target gene signature; type: cell-based; conditions: AR-positive cells; 500 nM, 24 h; FIG. 6
Procedure: as §2

[9] = test system: AR-positive cells; assay: Long-term colony formation assay; type: cell-based; conditions: 100 nM, 12 days, FIG. 3
Procedure: Cells were seeded in 96-well plates at 2000-10,000 cells/well (optimum density for growth) in a total volume of 100 μl media containing 10% FBS. Serially diluted compounds in 100 μl media were added to the cells 12 h later. Following 96 h. incubation, cell viability was assessed by Cell-Titer GLO (Promega). The values were normalized and IC50 was calculated using GraphPad Prism software. […] After 12 days cells were fixed with methanol, stained with crystal violet and photographed. For colorimetric assays, the stained wells were treated with 500 μl 10% acetic acid and the absorbance was measured at 560 nm using a spectrophotometer.

[10] = test system: castration-resistant VCaP tumor xenografts; assay: Castration-resistant VCaP tumor xenograft (CRPC experiment); type: in vivo; conditions: castrated mice; 50 mg/kg, 5 days/week; FIG. 26
Procedure: Four week-old male SCID C.B17 mice were procured from a breeding colony at University of Michigan. All procedures involving mice were approved by the University Committee on Use and Care of Animals (UCUCA) at the University of Michigan and conform to all regulatory standards. Mice were anesthetized using 2% Isoflurane (inhalation) and 2×10^6 VCaP prostate cancer cells suspended in 100 μl of PBS with 50% Matrigel (BD Biosciences) were implanted subcutaneously into the dorsal flank on both sides of the mice. […] Growth in tumor volume was recorded using digital calipers and tumor volumes were estimated using the formula (π/6) (L×W^2), where L=length of tumor and W=width. Loss of body weight during the course of the study was also monitored. At the end of the studies mice were sacrificed and tumors extracted and weighed. Additionally, femur bone marrow, liver and spleen were harvested to examine spontaneous metastasis by detecting human-Alu sequence. […] All procedures involving mice were approved by the University Committee on Use and Care of Animals (UCUCA) at the University of Michigan and conform to all regulatory standards.

[11] = gene set SCHLOSSER_MYC_AND_SERUM_RESPONSE_SYNERGY
[12] = gene set SCHLOSSER_MYC_TARGETS_AND_SERUM_RESPONSE_UP
[13] = gene set SCHUHMACHER_MYC_TARGETS_UP

Cc1sc2c(c1C)C(c1ccc(Cl)cc1)=N[C@@H](CC(=O)OC(C)(C)C)c1nnc(C)n1-2 [JQ1]
physiologic androgen-regulated processes [1]: No effect on physiologic androgen-regulated processes | testes size [1]: reduced testes size | cell invasion [2]: inhibited invasion | recruitment of BRD2/3/4 to the chromatin [3]: reduction in the recruitment | MYC levels [4]: attenuated | recruitment of AR to target loci [5]: block AR recruitment to a level almost equivalent to MDV3100 | NES ([6]; gene set MYC_UP.V1_UP): −2.068 | NES [6, 11]: −1.751 | NES [6, 12]: −1.957 | NES [6, 13]: −2.403 | NES ([7]; gene set MYC_UP.V1_UP): −2.265 | NES [7, 11]: −1.818 | NES [7, 12]: −1.824 | NES [7, 13]: −2.275 | GSEA of AR-gene signature [8]: significantly repressed | long term colony-formation [9]: severely inhibited | reduction in castration-resistant tumors [10]: 50%
